Legend:
human NaP2b (SLC34A2) = target: T1, human NaP2b (SLC34A2) (Homo sapiens, UniProt O95436); experiment: Inhibition of NaP2b-mediated Pi (33P) uptake in transfected HEK293 cells, human NaP2b; type: cell-based; conditions: HEK293 cells transfected with human NaP2b, 100 uM phosphate, 0.1 nM to 30 uM, read-out: pIC50 range for human NaP2b (converted)
T1 construct: host or cells: HEK293
T1 sequence (O95436 1-690): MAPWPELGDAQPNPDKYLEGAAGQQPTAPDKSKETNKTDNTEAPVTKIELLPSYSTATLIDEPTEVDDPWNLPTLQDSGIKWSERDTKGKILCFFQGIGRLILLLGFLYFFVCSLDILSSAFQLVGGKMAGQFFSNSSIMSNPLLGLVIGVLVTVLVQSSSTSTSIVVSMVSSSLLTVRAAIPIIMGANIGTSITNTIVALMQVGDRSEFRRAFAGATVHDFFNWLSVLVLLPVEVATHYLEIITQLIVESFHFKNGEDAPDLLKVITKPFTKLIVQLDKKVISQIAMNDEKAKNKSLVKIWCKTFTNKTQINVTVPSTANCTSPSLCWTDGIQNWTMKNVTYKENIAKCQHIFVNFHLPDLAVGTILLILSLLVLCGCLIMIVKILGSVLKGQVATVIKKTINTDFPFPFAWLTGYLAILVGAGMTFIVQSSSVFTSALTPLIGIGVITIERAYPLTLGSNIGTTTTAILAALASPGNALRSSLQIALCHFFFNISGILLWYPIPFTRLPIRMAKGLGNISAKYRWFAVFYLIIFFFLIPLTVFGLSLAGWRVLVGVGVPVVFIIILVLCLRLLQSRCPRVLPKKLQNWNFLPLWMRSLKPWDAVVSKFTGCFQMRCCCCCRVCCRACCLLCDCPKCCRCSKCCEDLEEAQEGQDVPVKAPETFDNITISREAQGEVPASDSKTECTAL
In short: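 HEK293 cells transiently expressing mutated human NaP2b, with PiT transport pharmacologically silenced; sodium-dependent 33P-phosphate uptake (100 uM KH2PO4, pH 7.4) measured over 3–30 min at room temperature by scintillation. Twelve compound concentrations from 0.1 nM to 30 uM, in duplicate; pIC50 calculated.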

[1] = Fecal recovery of orally administered compounds; type: in vivo; conditions: rat; oral gavage; feces collected until 48 hr after dosing
Source text: In this respect, it is understood that a recovered compound can include the sum of the parent compound and its metabolites derived from the parent compound, e.g., by means of hydrolysis, conjugation, reduction, oxidation, N-alkylation, glucuronidation, acetylation, methylation, sulfation, phosphorylation, or any other modification that adds atoms to or removes atoms from the parent compound, wherein the metabolites are generated via the action of any enzyme or exposure to any physiological environment including, pH, temperature, pressure, or interactions with foodstuffs as they exist in the digestive milieu. Measurement of fecal recovery of compound and metabolites can be carried out using standard methodology. For example, compound can be administered orally at a suitable dose (e.g., 10 mg/kg) and feces are then collected at predetermined times after dosing (e.g., 24 hours, 48 hours, 72 hours). Parent compound and metabolites can be extracted with organic solvent and analyzed quantitatively using mass spectrometry. A mass balance analysis of the parent compound and metabolites (including, parent=M, metabolite 1 [M+16], and metabolite 2 [M+32]) can be used to determine the percent recovery in the feces.
Quantitative determination of test compound level in feces after oral gavage was performed using the same set of animals used to determine test compound concentration in plasma (Example 352). The animals were kept in metabolic cages and feces were collected from the time of dosing until 48 hr after dosing. Upon collection, feces were dried by lyophilization and ground to a visually homogenous powder. Duplicate samples of ground feces from each individual animal were weighed out and extracted using organic solvent. Extracted samples were then diluted into mobile phase and test compound levels were quantitatively determined by LC-MS/MS analysis as described in Example 352 except that the standard curve was prepared in a feces matrix. Extraction conditions were not optimized for individual compounds, and thus may represent a minimal level of recovery.

SMILES | IC50 (human NaP2b (SLC34A2)) | % recovered in feces [1]
O=C(O)CCSCc1cccc(C(=O)Nc2ccc(N3CCCCC3)cc2-c2cc(C(=O)NCc3cccc(C(F)(F)F)c3)ccn2)c1 [Example 1.1, 3-(3-((2-(4-((3-(trifluoromethyl)benzyl)carbamoyl)pyridin-2-yl)-4-(piperidin-1-yl)phenyl)carbamoyl)-benzylthio)propanoic acid] | 1000 to 7940 nM | 20-80%
CCN(CC)c1ccc(NC(=O)c2cccc(C(=O)N(C)CCN3CCOCC3)c2)c(-c2cc(C(=O)NCc3cccc(C(F)(F)F)c3)ccn2)c1 [Example 25, N1-(4-(Diethylamino)-2-(4-((3-(trifluoromethyl)benzyl)carbamoyl)pyridin-2-yl)phenyl)-N3-methyl-N3-(2-morpholinoethyl)isophthalamide] | < 1000 nM | 20-80%
